# Values of other authors as cited in paper PMC4158421, “Screening-based discovery of Aspergillus fumigatus plant-type chitinase inhibitors” (Febs Letters, 2014).
# Tested on: A. fumigatus biofilm
# Parameters: method as in PMID 23314962
compound,measurement,value
CC(=O)Nc1nnc(S(N)(=O)=O)s1 [acetazolamide],effect on A. fumigatus biofilm biomass,reduce A. fumigatus biofilm biomass
